Values quoted from earlier work, collected in patent US20250074935A1, “HETERODIMER COMPOSITIONS AND METHODS FOR THE TREATMENT OF OCULAR DISORDERS” (Ripple Therapeutics Corporation, priority 2020, published 2025).

Conditions: given once a day

CC(C)OC(=O)CCC/C=C\C[C@@H]1[C@@H](CC[C@@H](O)CCc2ccccc2)[C@H](O)C[C@@H]1O [latanoprost]
mean IOP lowering: about 35%
